Reference: patent US20030195240A1, “Pharmaceutical compositions comprising proton pump inhibitors and gastrin/cholecystokinin receptor ligands” (priority 2000, published 2003)

Test system: ECL cells
Experiment: labelling index of ECL cells (HDC+PCNA double labelling) in oxyntic mucosa after 14 days once-daily treatment
Format: in vivo, male SPF Wistar rats
Settings: rats, 25 mg/kg p.o. once daily for 14 days; compared with control group
Method: This was measured according to the following experimental protocol. 40 male SPF Wistar rats (200 g) were divided into 4 treatment groups and 2 strata. The treatment of the 20 rats in the second stratum started 2 weeks after the treatment of the first stratum. The design of the study was completely randomised double blind with individual blinding; all rats were placed in a separate cage. Animals had continuous access to water and food. Animals were treated once daily during 14 days: [table] After removal of the fundus, the stomach were rinsed with phosphate buffered saline prior to fixation with 4% formalin in Millonig buffer. After 4 hours immersion in fixative solutions at room temperature, tissue was rinsed in phosphate buffered saline (PBS), dehydrated and embedded in paraffin using the Leitz paraffin embedding station (Leitz TP 1050; Germany) dehydration module and paraffin embedding module (Leitz EG 1160; Germany). Cross sections (3 μm thick) of the oxyntic part of the stomach were made at 3 levels, each separated by a distance of 400 μm. The following indirect immunofluorescence labeling method was used: removal of paraffin and rehydratation of the sections followed by a blocking step primary antibodies: polyclonal guinea pig anti-histidine decarboxylase, 1/2000 (from Euro-Diagnostica) and monoclonal mouse anti PCNA 1/2500 (Clone PC10 from Sigma). […]

Structure (SMILES): COCCCOc1ccnc(C[S+]([O-])c2nc3ccccc3[nH]2)c1C (stereo not shown) [rebeprazole, 2-[[4-(3-methoxypropoxy)-3-methylpyridin-2-yl]methylsulfinyl]-1H-benzimidazole]
- labelling index of ECL cells, Mann-Whitney test P, treated group versus control group: 0.04
